“Also recorded” adds a separate entry of the source. Like-named read-outs stand apart in the source and are kept apart here. Where no end group is shown, it is not given here.
Legend:
senescent cells = assay: Cell binding assay with radio-labeled peptide
Method: (§1) A senescent cell binding agent (SEQ ID NO:1) was conjugated at its C terminus to the linker sequence GGGC (SEQ ID NO:9) by synthesizing both as a single construct (i.e., SenC; SEQ ID NO:5). The purpose of attaching GGGC was that it can be used to chelate reduced 99m-Tc for radio-labeling. A 2 μL aliquot of conjugated senescent cell binding agent (3 M) was mixed with 40 μL of 0.25 M ammonium acetate, 15 μL of tartrate buffer pH 8.7, 4 μL of stannous chloride in 100 mM of sodium tartrate, and 30 μL of 99m-Tc pertechnetate. The mixture was heated for 25 minutes at 95° C. Quality control was performed with Sep-Pak and was always above 90% purity. A small aliquot was also injected on a Waters 600 HPLC to check the radiological profile. Fractions were collected and read on a gamma counter (Perkin-Elmer Wallac Wizard 1470).
(§2) Binding of radio-labeled SenC (SEQ ID NO:5) to senescent and non-senescent cells was tested by competition with unlabeled SenC. Peptide solutions were prepared to contain 0 or 20 μM of unlabeled SenC, 15 nM radio-labeled SenC, and 0.2% BSA. Chemically-induced senescent fibroblasts, their non-senescent counterparts, and prostate epithelial cells were prepared as above, harvested, and centrifuged. The cell pellets were resuspended in fresh media without FBS, and cells were counted. Peptide solution containing 0 or 20 μM unlabeled SenC and constant concentrations of SenC and 10^5 senescent cells were combined in a final volume of 200 μL of PBS in Eppendorf tubes and incubated for 4 hours. Cells were pelleted by centrifuging at 2500 rpm for 2 minutes and washed twice with PBS and 0.2% BSA. Pellets were suspended in 5 μL PBS and transferred to 12×75 mm tubes for counting radioactivity using a gamma counter (Perkin-Elmer Wallac Wizard 1470).

prostate epithelium = assay: Cell binding assay with radio-labeled peptide
Method: as §1, §2

normal fibroblasts = assay: Cell binding assay with radio-labeled peptide
Method: as §1, §2

[1] = 1×iv, mice; cited from earlier work
[2] = cited from earlier work
[3] = test system: immortalized prostate epithelial cells; assay: Cell Proliferation Assay WST-1; format: cell-based
Method: (§3) Cell proliferation was assayed using the Cell Proliferation Reagent WST-1 (Roche, Mannheim, Germany) by following the manufacturer's instructions.

senescent fibroblasts [4] = assay: Cell Proliferation Assay WST-1; format: cell-based
Method: as §3

[5] = test system: non-senescent fibroblasts; assay: Cell Proliferation Assay WST-1; format: cell-based
Method: as §3

[6] = test system: prostate epithelial cells (RWPE-1); assay: Cytotoxicity, LDH release (CytoTox-ONE); format: cell-based; settings: immortalized prostate epithelial cells RWPE-1, 2 hours at 37° C.
[7] = test system: non-senescent fibroblasts; assay: Cytotoxicity, LDH release (CytoTox-ONE); format: cell-based; settings: 2 hours at 37° C.
senescent fibroblasts [8] = assay: Cytotoxicity, LDH release (CytoTox-ONE); format: cell-based; settings: 2 hours at 37° C.
[9] = absence of unlabeled peptide, 15 nM radio-labeled SenC, 4 hours
[10] = presence of 20 μM unlabeled SenC

In the case of “radio-labeled SenC: SenC (SEQ ID NO:5) radio-labeled with 99m-Tc chelated by GGGC (GVYHFAPLTPTPGGGC; also: 99mTc chelated by GGGC)”, the “specificity of binding (absence vs. presence of unlabeled SenC)” value (senescent cells) was “specific binding”, the “bound peptide, average” value (senescent cells; [9]) was 0.32 % of added dose and the “bound peptide, average” value (senescent cells; [10]) was 0.25 % of added dose. For the same molecule, the “specificity of binding (absence vs. presence of unlabeled SenC)” value (prostate epithelium) was “nonspecific”, the “bound peptide, average” value (prostate epithelium; [9]) was 0.06 % of added dose and the “bound peptide, average” value (prostate epithelium; [10]) was 0.06 % of added dose. For the same molecule, the “specificity of binding (absence vs. presence of unlabeled SenC)” value (normal fibroblasts) was “nonspecific”, the “bound peptide, average” value (normal fibroblasts; [9]) was 0.08 % of added dose and the “bound peptide, average” value (normal fibroblasts; [10]) was 0.09 % of added dose.
In the case of `CC[C@@]1(O)C(=O)OCc2c1cc1n(c2=O)Cc2cc3c(CN(C)C)c(O)ccc3nc2-1` [topotecan], the LD1Omice [1] is given as 75 mg/m^2.
In the case of `CC[C@]1(O)C[C@@H]2CN(CCc3c([nH]c4ccccc34)[C@@](C(=O)OC)(c3cc4c(cc3OC)N(C)[C@H]3[C@@](O)(C(=O)OC)[C@H](OC(C)=O)[C@]5(CC)C=CCN6CC[C@]43[C@@H]65)C2)C1` [vinblastine], the MTD ([2]; escalating) is given as 3.3-11.1 mg/m^2 and the MTD ([2]; rarely to) is given as 18.5 mg/m^2.
In the case of “GVYHFAPLTPTPGGGSKFAKFAKKFAKFAK (GVYHFAPLTPTPGGSKFAKFAKKFAKFAK) [SenL]”, the “cell proliferation (WST-1, metabolic activity)” value (shortened to “cell proliferation”) [3] was “no change in cell proliferation; also recorded: no significant effect on metabolic activity”, the “cell proliferation” value (senescent fibroblasts [4]) was “no change in cell proliferation; also recorded: no significant effect on metabolic activity” and the “cell proliferation” value [5] was “no change in cell proliferation; also recorded: no significant effect on metabolic activity”. For the same molecule, the “cell death (percentage of cells killed)” value [6] was “no cell death at all; also recorded: No cell death was observed”, the “cell death (percentage of cells killed)” value [7] was “some cytotoxicity is observed” and the “cell death (percentage of cells killed)” value (senescent fibroblasts [8]) was “dose-dependent cell death at a significantly higher rate than either non-senescent fibroblasts or prostate epithelial cells”.

Reference: patent US9969776B2, “Drug conjugates for delivering compounds to senescent cells” (Unity Biotechnology, Inc., priority 2007, dated 2018)
